# Entries after “also recorded” stand apart in the source; their conditions may differ.
# Experiments:
# [1] = tested on: FGF-2 binding to cell surface heparan sulfate; test: Inhibition of biotinylated FGF-2 binding to wild-type CHO cells; parameters: species or system Chinese hamster
# Procedure: (§1) Inhibition Experiments—Wild-type CHO cells were grown to confluence on 6-well tissue culture plates, harvested with 10 mM EDTA (37° C., 10 min), washed with phosphate-buffered saline (PBS), and incubated in suspension with biotinylated FGF-2 (10 ng/ml) (25) in F12 medium for 1 h at 4° C. in the presence of increasing concentrations of guanidinoneomycin (100 nM to 1.8 mM). The cells were then stained with streptavidin-phycoerythrin-Cy5 (BD Biosciences) for 20 min, washed three times with PBS, and analyzed by flow cytometry. Cells were also incubated in F12 medium containing 0.5 μM Arg9-BODIPY and increasing concentrations of guanidinoneomycin (1-300 μM) for 1 h at 37° C. and analyzed by flow cytometry.
# Wild-type CHO cells [2] = test: Inhibition of Arg9-BODIPY binding and uptake; type: cell-based, Chinese hamster; conditions: Arg9-BODIPY 0.5 μM, guanidinoneomycin 1-300 μM, 1 h, 37° C.
# Procedure: as §1
# 10T1/2 cells = test: FACS cellular uptake of BODIPY conjugates in 10T1/2 cells; type: cell-based, mouse
# Procedure: 10T1/2 cells, an adherent non-transformed mouse fibroblast cell line, and HeLa cells, a common human cancer cell line, were purchased from ATCC and used before their 20th passage. Both cell lines were cultured in Dulbecco's modified eagle medium containing 10% fetal bovine serum at 37° C. in an 8% CO2 environment. For each experiment, cells were seeded onto 4 cm tissue culture plates (Nunc) and allowed to grow overnight to ˜80% confluency.
# Compounds 1-5 identified in Table 1, below (0.5-1 μM), were added to each dish and incubated at 37° C./8% CO2 for 0.5-1 hr. Cells were then washed once in PBS, trypsinized with 500 μl ATV solution (Gibco) for 3 minutes, pelleted in a fixed angle centrifuge for 5 minutes at 5,000×G, then brought up in 1 mL PBS. Each sample was quickly (within 5 minutes) analyzed on a FACS VantageSE cell sorter (Becton-Dickinson) using the 488 nm argon/krypton laser line and a 530 nm band pass emission filter. 2,000-10,000 cells were counted per sample.
# Wild-type CHO cells [3] = test: Live-cell uptake of fluorescent guanidinoneomycin conjugate (streptavidin-Alexa-488), microscopy; type: cell-based, Chinese hamster; conditions: heparin 50 μg/ml
# Procedure: Microscopy—Cells were cultured on Lab-Tek chambered coverglass slides (Electron Microscopy Sciences) in F12 medium. After washing with PBS, cells were incubated for 1 h in 1 ml of 60 nM guanidinoneomycin coupled to streptavidin-Alexa-488 (Molecular Probes) at 37° C. Guanidinoneomycin-A488 was prepared by incubating 1 μM guanidinoneomycinbiotin with 6 μg of streptavidin-Alexa-488 in 1 ml of medium. Hoechst 33342 (2 μg/ml; Molecular Probes) was added to cells for the last 20 min of incubation. Cells were washed three times with F12 medium before live cell imaging. Microscopic images were acquired on an Olympus IX70 DeltaVision Spectris Image Deconvolution system, equipped with a temperature and atmospherically controlled stage. Images were deconvolved (10 cycles) using SoftWoRx Explorer Suite software.
# WT CHO-K1 cells = test: Competition of guanidinoneomycin construct uptake by model glycans; type: cell-based, Chinese hamster
# Wild-type CHO cells [4] = test: Uptake of streptavidin-PE-Cy5 conjugates by flow cytometry, wild-type CHO cells; type: cell-based, Chinese hamster
# Procedure: After thawing at room temperature, compounds were diluted into F12 medium to 1 μM. To this solution, streptavidin-PE-Cy5 (BD Biosciences) was added in a 1:1000 dilution to achieve a ratio of 1:3 of fluorophore to biotin. To ensure completion of the biotin-streptavidin reaction, the solution was gently mixed and allowed to incubate at room temperature, shielded from light for 30 min. Following this incubation, compounds were diluted to the desired concentration in growth medium. For experiments done at 4° C. solutions were incubated on ice for 30 min.
# After washing with PBS, cells were incubated with the fluorescent-tagged guanidinoneomycin-, neomycin-, or Arg9-biotin for 1 h at 37° C. under an atmosphere of 5% CO2. Cells were washed with PBS, released with EDTA, and analyzed by flow cytometry.
# Wild-type CHO cells [5] = test: Saporin delivery, CellTiter-Blue viability, wild-type CHO cells; conditions: at concentrations up to 100 nM
# Procedure: Saporin Delivery—A conjugate of saporin and biotinylated guanidinoneomycin was prepared by mixing streptavidinylated saporin (Advanced Targeting Systems) with biotinylated compound in 1:4 ratio. […] CellTiter-Blue (Promega) was added to the medium and cells were incubated for an additional 4 h to measure viability.
# MPS I fibroblasts = test: [35S]glycosaminoglycan turnover, label-chase, MPS I fibroblasts; type: cell-based, human; conditions: enzyme 2 hours, chase 24 hours
# Procedure: To test whether internalized GUS was functionally localized in lysosomes, a label-chase format was used in which cells were incubated with ^35S-labeled sulfate for 24 hours to radiolabel the sulfated glycosaminoglycans. The medium was changed, and after 24 hours, the amount of [^35S]glycosaminoglycans that remained associated with the cells was quantitated. Normal and MPS fibroblasts were incubated in DMEM/F12 medium supplemented with 10% dialyzed fetal bovine serum in order to increase the radiospecific activity of added ^35S4. Cells were seeded in a 12-well plate, and at confluence, 50 μCi of Na[^35S]O4 (PerkinElmer) was added in 1 ml of fresh medium. After 24 hours, the cells were rinsed twice with PBS, exposed to GUS or α-iduronidase for 2 hours, rinsed twice, and then chased for 24 hours in complete growth medium. The cells were harvested with trypsin, centrifuged (500 g, 5 minutes), and washed once. The sedimented cells were then resuspended in 100 μl of RIPA buffer (Sigma) and counted by liquid scintillation spectrometry using Scintillator Ultima Gold XR (PerkinElmer).
molecule,measurement,setting,value
"N=C(N)NC[C@@H]1O[C@H](O[C@H]2[C@@H](O)[C@H](O[C@@H]3[C@@H](O)[C@H](NC(=N)N)C[C@H](NC(=N)N)[C@H]3O[C@H]3O[C@H](CNC(=N)N)[C@@H](O)[C@H](O)[C@H]3NC(=N)N)O[C@@H]2CO)[C@H](NC(=N)N)[C@@H](O)[C@@H]1O [guanidinoneomycin, guanidino-neomycin B]",IC50,"[1]; biotinylated FGF-2 10 ng/ml, 1 h, 4° C.",~20 µM
same,inhibition of fluorescent Arg9 binding and uptake,Wild-type CHO cells [2],incomplete; also recorded: partially block
same,inhibition of transport of BODIPY-Cys(Arg)9 into cells,"10T1/2 cells; competition experiment, FACS",effectively inhibits
"NC[C@@H]1O[C@H](O[C@H]2[C@@H](O)[C@H](O[C@@H]3[C@@H](O)[C@H](N)C[C@H](N)[C@H]3O[C@H]3O[C@H](CN)[C@@H](O)[C@H](O)[C@H]3N)O[C@@H]2CO)[C@H](N)[C@@H](O)[C@@H]1O [neomycin, neomycin B, reference compound]",inhibition of FGF-2 binding,[1],did not inhibit binding
same,enhancement of cellular uptake upon guanidinylation,"10T1/2 cells; relative to autofluorescence, BODIPY conjugates, FIG. 3 and Table 1",approximately 20 fold
heparin [Heparin (A)],effect of heparin in incubation medium on uptake of guanidinoneomycin-streptavidin-Alexa-488,Wild-type CHO cells [3],completely abolished uptake
same,increase of sensitivity of dimeric over monomeric construct to inhibition,WT CHO-K1 cells,3 fold
same,inhibition of uptake of monomeric guanidinoneomycin 1,WT CHO-K1 cells; at the tested concentrations,showed inhibition
same,heparin concentration blocking uptake of fluorescent guanidinoneomycin conjugate (as low as),Wild-type CHO cells [4],≥ 100 ng/mL
saporin,cell toxicity,Wild-type CHO cells [5],No cell toxicity
"Aldurazyme: recombinant therapeutic α-1-iduronidase (protein, UniProt P35475 28-653, looked up, laronidase, recombinant therapeutic α-1-iduronidase) Alpha-L-iduronidase: APHLVHVDAARALWPLRRFWRSTGFCPPLPHSQADQYVLSWDQQLNLAYVGAVPHRGIKQVRTHWLLELVTTRGSTGRGLSYNFTHLDGYLDLLRENQLLPGFELMGSASGHFTDFEDKQQVFEWKDLVSSLARRYIGRYGLAHVSKWNFETWNEPDHHDFDNVSMTMQGFLNYYDACSEGLRAASPALRLGGPGDSFHTPPRSPLSWGLLRHCHDGTNFFTGEAGVRLDYISLHRKGARSSISILEQEKVVAQQIRQLFPKFADTPIYNDEADPLVGWSLPQPWRADVTYAAMVVKVIAQHQNLLLANTTSAFPYALLSNDNAFLSYHPHPFAQRTLTARFQVNNTRPPHVQLLRKPVLTAMGLLALLDEEQLWAEVSQAGTVLDSNHTVGVLASAHRPQGPADAWRAAVLIYASDDTRAHPNRSVAVTLRLRGVPPGPGLVYVTRYLDNGLCSPDGEWRRLGRPVFPTAEQFRRMRAAEDPVAAAPRPLPAGGRLTLRPALRLPSLLLVHVCARPEKPPGQVTRLRALPLTQGQLVLVWSDEHVGSKCLWTYEIQFSQDGKAYTPVSRKPSTFNLFVFSPDTGAVSGSYRVRALDYWARPGPFSDPVPYLEVPVPRGPPSPGNP","ED50, [35S]glycosaminoglycan turnover",MPS I fibroblasts,1 U
"GNeo-AP-α-1-iduronidase: GNeo conjugated to AP-α-1-iduronidase (conjugate, UniProt P35475 28-653, looked up, GNeo conjugate, dephosphorylated, GNeo conjugated to AP-α-1-iduronidase) Alpha-L-iduronidase: APHLVHVDAARALWPLRRFWRSTGFCPPLPHSQADQYVLSWDQQLNLAYVGAVPHRGIKQVRTHWLLELVTTRGSTGRGLSYNFTHLDGYLDLLRENQLLPGFELMGSASGHFTDFEDKQQVFEWKDLVSSLARRYIGRYGLAHVSKWNFETWNEPDHHDFDNVSMTMQGFLNYYDACSEGLRAASPALRLGGPGDSFHTPPRSPLSWGLLRHCHDGTNFFTGEAGVRLDYISLHRKGARSSISILEQEKVVAQQIRQLFPKFADTPIYNDEADPLVGWSLPQPWRADVTYAAMVVKVIAQHQNLLLANTTSAFPYALLSNDNAFLSYHPHPFAQRTLTARFQVNNTRPPHVQLLRKPVLTAMGLLALLDEEQLWAEVSQAGTVLDSNHTVGVLASAHRPQGPADAWRAAVLIYASDDTRAHPNRSVAVTLRLRGVPPGPGLVYVTRYLDNGLCSPDGEWRRLGRPVFPTAEQFRRMRAAEDPVAAAPRPLPAGGRLTLRPALRLPSLLLVHVCARPEKPPGQVTRLRALPLTQGQLVLVWSDEHVGSKCLWTYEIQFSQDGKAYTPVSRKPSTFNLFVFSPDTGAVSGSYRVRALDYWARPGPFSDPVPYLEVPVPRGPPSPGNP","ED50, [35S]glycosaminoglycan turnover",MPS I fibroblasts,0.2 units
"AP-α-1-iduronidase: α-1-iduronidase treated with alkaline phosphatase (protein, UniProt P35475 28-653, looked up, dephosphorylated by alkaline phosphatase, α-1-iduronidase treated with alkaline phosphatase) Alpha-L-iduronidase: APHLVHVDAARALWPLRRFWRSTGFCPPLPHSQADQYVLSWDQQLNLAYVGAVPHRGIKQVRTHWLLELVTTRGSTGRGLSYNFTHLDGYLDLLRENQLLPGFELMGSASGHFTDFEDKQQVFEWKDLVSSLARRYIGRYGLAHVSKWNFETWNEPDHHDFDNVSMTMQGFLNYYDACSEGLRAASPALRLGGPGDSFHTPPRSPLSWGLLRHCHDGTNFFTGEAGVRLDYISLHRKGARSSISILEQEKVVAQQIRQLFPKFADTPIYNDEADPLVGWSLPQPWRADVTYAAMVVKVIAQHQNLLLANTTSAFPYALLSNDNAFLSYHPHPFAQRTLTARFQVNNTRPPHVQLLRKPVLTAMGLLALLDEEQLWAEVSQAGTVLDSNHTVGVLASAHRPQGPADAWRAAVLIYASDDTRAHPNRSVAVTLRLRGVPPGPGLVYVTRYLDNGLCSPDGEWRRLGRPVFPTAEQFRRMRAAEDPVAAAPRPLPAGGRLTLRPALRLPSLLLVHVCARPEKPPGQVTRLRALPLTQGQLVLVWSDEHVGSKCLWTYEIQFSQDGKAYTPVSRKPSTFNLFVFSPDTGAVSGSYRVRALDYWARPGPFSDPVPYLEVPVPRGPPSPGNP","ED50, [35S]glycosaminoglycan turnover",MPS I fibroblasts,30 U
